Measured values published in paper PMC10951340, “Two DOT1 enzymes cooperatively mediate efficient ubiquitin-independent histone H3 lysine 76 tri-methylation in kinetoplastids” (Nature Communications, 2024).

What was measured:
[1] = target: T1, Δ42-DOT1A (Trypanosoma brucei, UniProt Q581Z0); assay: X-ray crystal structure of the complex ([…] and […] Å); format: binding; parameters: residues 43-295, E. coli, His6-tag cut with PreScission; conditions: active site; co-crystallised with twofold molar excess
[2] = target: T2, full-length DOT1A (Trypanosoma brucei, UniProt Q581Z0); assay: 3H-methyl incorporation into nucleosome; quantitative MS of H3K76; format: biochemical; conditions: co-substrate T. brucei nucleosome, pH 8.5, 25 °C; labelled compound
T2 construct: full length (295 residues), Sf9 cells, His6-tag cut with PreScission
T2 sequence (Q581Z0 1-295): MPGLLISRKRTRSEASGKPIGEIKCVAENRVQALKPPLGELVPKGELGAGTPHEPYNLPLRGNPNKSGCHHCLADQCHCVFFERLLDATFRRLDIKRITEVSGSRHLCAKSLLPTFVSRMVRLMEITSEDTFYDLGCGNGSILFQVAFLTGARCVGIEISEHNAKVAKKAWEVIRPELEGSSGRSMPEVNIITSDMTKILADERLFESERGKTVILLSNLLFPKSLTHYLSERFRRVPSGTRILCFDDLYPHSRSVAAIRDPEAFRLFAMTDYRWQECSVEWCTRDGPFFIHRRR

[3] = target: T1, Δ42-DOT1A; conditions: pH 8.5, on ice, 254 nm 1 h; covalent photo-cross-link; labelled compound
[4] = target: Δ27-DOT1B (Trypanosoma brucei, UniProt Q4GZF2); conditions: co-substrate T. brucei nucleosome, pH 8.5, 25 °C; labelled compound
[5] = target: T3, DOT1A full-length (Trypanosoma brucei strain Lister 427, UniProt Q581Z0 1-295); assay: fluorescence polarization; n = 1; FP: 5 nM probe, 100 mM NaCl, 20 mM Tris-HCl pH 7.5, 5% glycerol, 0.5 mM TCEP, 25 °C, 10 min; footprinting at ambient temperature; conditions: protein: recombinant; tags: His6 cleaved (PreScission); label: 5'-FAM on strand 1; 5' overhang 2 nt (CC) on strand 2
T3 sequence: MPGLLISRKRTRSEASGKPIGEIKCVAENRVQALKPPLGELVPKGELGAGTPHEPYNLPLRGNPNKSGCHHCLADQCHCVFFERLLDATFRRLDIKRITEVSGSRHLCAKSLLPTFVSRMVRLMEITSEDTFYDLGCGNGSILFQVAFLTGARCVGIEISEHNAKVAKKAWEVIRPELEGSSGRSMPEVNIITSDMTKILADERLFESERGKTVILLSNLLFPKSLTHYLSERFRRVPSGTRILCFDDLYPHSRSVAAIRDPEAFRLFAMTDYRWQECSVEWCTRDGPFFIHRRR

[6] = target: DOT1L (1-420) (human, UniProt Q8TEK3 1-420); assay: fluorescence polarization; n = 2; FP: 5 nM probe, 100 mM NaCl, 20 mM Tris-HCl pH 7.5, 5% glycerol, 0.5 mM TCEP, 25 °C, 10 min; footprinting at ambient temperature; conditions: protein: recombinant; tags: His6 cleaved (PreScission); label: 5'-FAM on strand 1; 5' overhang 2 nt (CC) on strand 2
[7] = target: T4, Δ42-DOT1A (Trypanosoma brucei strain Lister 427, UniProt Q581Z0 43-295); assay: fluorescence polarization; not detectable; n = 1; FP: 5 nM probe, 100 mM NaCl, 20 mM Tris-HCl pH 7.5, 5% glycerol, 0.5 mM TCEP, 25 °C, 10 min; footprinting at ambient temperature; conditions: protein: recombinant; tags: His6 cleaved (PreScission); label: 5'-FAM on strand 1; 5' overhang 2 nt (CC) on strand 2
T4 sequence: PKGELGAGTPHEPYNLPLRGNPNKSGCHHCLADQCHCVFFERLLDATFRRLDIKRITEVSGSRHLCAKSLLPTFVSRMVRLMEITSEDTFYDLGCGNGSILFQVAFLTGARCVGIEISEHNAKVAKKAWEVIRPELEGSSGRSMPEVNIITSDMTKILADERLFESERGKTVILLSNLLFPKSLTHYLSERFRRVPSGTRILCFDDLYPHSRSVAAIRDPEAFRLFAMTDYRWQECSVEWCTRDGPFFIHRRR

Δ27-DOT1B, sequence (Q4GZF2 entry or part of it, stated change not applied): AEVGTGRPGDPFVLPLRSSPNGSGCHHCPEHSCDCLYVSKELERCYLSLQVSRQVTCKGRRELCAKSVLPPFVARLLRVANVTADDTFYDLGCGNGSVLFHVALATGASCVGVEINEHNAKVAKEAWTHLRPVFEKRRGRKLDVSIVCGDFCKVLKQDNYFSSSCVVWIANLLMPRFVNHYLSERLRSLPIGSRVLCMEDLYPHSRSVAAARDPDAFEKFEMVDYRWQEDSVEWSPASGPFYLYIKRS
DOT1L (1-420), sequence (Q8TEK3 1-420): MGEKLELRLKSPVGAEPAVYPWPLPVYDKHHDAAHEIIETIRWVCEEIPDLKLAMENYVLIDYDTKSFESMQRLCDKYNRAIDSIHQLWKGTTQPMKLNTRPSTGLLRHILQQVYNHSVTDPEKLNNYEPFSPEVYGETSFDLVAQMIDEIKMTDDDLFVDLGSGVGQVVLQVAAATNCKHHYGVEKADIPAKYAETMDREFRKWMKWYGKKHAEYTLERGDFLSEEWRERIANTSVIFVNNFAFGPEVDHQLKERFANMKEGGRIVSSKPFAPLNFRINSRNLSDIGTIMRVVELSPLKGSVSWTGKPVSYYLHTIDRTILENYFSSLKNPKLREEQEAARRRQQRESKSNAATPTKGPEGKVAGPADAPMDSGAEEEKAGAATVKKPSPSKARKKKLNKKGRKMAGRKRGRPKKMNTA

## Nc1ncnc2c1ncn2[C@@H]1O[C@H](CSCC[C@H](N)C(=O)O)[C@@H](O)[C@H]1O [AdoHcy]
[1]
  X-ray crystal structure of the complex (2.1 and 1.9 Å): Δ42-DOT1A crystallized in complex with the methyl donor product AdoHcy in two different crystal forms

## C[S+](CC[C@H](N)C(=O)O)C[C@H]1O[C@@H](n2cnc3c(N)ncnc32)[C@H](O)[C@@H]1O (stereo partly shown) [AdoMet]
[2]
  3H-methyl incorporation into nucleosome; quantitative MS of H3K76: Methyltransferase activity of full-length DOT1A, Δ42-DOT1A, and Δ27-DOT1B toward the recombinant T. brucei nucleosome
[3]
  UV cross-linking of [methyl-3H]AdoMet, SDS-PAGE fluorography: AdoMet binding analyzed by cross-linking experiments showing Coomassie stain (middle) and fluorography (bottom)
[4]
  3H-methyl incorporation into nucleosome; quantitative MS of H3K76: Δ27-DOT1B showed significant methyltransferase activity by measuring tritium incorporation from [methyl-^3H] AdoMet in vitro

B1: FAM-dsDNA probe (dsDNA)
DNA 1: CTACAGTTCGTCAGGATTCC
DNA 2: CCGGAATCCTGACGAACTGTAG
[5]
  Kd: 900 ± 200 nM
[6]
  Kd: 110 ± 20 nM
[7]
  binding result: no binding
